From ChEMBL document CHEMBL1909046, “DrugMatrix in vitro pharmacology data”

Assays:
[1] = DRUGMATRIX: Atrial Natriuretic Factor (ANF) radioligand binding (ligand: [125I] ANF (rat)); assay type: cell membranes, Cavia porcellus, Dunkin-Hartley, Adrenal gland, Membrane; conditions: Not Active = under 50% inhibition at 10 µM
[2] = target: Melanocortin receptor 4 (Homo sapiens, UniProt P32245); assay type: cell membranes, Membrane; conditions: hek293; also: in other assays of this panel Not Active means under 50% inhibition at 10 µM
[3] = target: T1, 5-hydroxytryptamine receptor 1A (Rattus norvegicus, UniProt P19327); assay type: cell membranes, CHO-K1, Membrane; conditions: cho-k1; also: in other assays of this panel Not Active means under 50% inhibition at 10 µM
T1 sequence (P19327 whole entry): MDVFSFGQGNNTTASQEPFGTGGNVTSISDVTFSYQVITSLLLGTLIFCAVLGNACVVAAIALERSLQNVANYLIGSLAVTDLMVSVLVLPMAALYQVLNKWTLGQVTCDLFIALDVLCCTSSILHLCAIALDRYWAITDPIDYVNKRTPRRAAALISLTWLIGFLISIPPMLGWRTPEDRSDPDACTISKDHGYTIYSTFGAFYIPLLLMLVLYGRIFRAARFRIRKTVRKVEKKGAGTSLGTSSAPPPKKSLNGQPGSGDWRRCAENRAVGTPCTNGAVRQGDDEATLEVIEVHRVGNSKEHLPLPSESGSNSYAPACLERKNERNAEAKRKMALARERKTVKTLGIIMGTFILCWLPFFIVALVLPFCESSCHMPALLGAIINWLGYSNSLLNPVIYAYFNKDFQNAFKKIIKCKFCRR

[4] = DRUGMATRIX: Sigma2 radioligand binding (ligand: [3H] Ifenprodil); assay type: cell membranes, Rattus norvegicus, Wistar, Brain, Membrane; conditions: Not Active = under 50% inhibition at 10 µM
[5] = target: Aldo-keto reductase family 1 member B1 (Rattus norvegicus, UniProt P07943); experiment: biochemical; assay type: tissue-based, Lens of camera-type eye;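 also: inhibition of aldose reductase enzyme activity, measured with DL-glyceraldehyde as the substrate; in other assays of this panel Not Active means under 50% inhibition at 10 µM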
[6] = target: T2, Vasoactive intestinal polypeptide receptor 1 (Homo sapiens, UniProt P32241); assay type: cell membranes, Membrane; conditions: ht-29; also: in other assays of this panel Not Active means under 50% inhibition at 10 µM
T2 sequence (P32241 whole entry): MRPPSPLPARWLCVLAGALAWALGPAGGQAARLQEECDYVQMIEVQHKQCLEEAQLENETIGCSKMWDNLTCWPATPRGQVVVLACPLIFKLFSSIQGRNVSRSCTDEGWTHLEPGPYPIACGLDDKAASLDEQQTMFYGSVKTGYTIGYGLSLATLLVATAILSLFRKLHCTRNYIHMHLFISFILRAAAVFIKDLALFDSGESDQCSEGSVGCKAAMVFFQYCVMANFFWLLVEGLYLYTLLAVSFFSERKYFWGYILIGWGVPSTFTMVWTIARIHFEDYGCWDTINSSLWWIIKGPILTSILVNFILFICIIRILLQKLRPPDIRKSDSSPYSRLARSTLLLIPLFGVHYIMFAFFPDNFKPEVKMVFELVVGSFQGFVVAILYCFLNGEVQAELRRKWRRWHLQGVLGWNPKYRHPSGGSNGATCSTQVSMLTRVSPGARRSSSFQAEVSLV

[7] = target: T3, Cathepsin G (Homo sapiens, UniProt P08311); experiment: biochemical; assay type: tissue-based, Neutrophil; conditions: neutrophil
T3 sequence (P08311 whole entry): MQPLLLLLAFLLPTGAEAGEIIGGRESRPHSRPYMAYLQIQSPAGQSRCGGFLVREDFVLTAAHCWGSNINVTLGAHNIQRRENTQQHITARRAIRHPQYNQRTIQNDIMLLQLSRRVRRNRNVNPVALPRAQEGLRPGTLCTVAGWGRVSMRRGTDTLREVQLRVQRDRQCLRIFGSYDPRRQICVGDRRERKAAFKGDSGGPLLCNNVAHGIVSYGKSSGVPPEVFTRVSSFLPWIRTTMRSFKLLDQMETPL

Melanocortin receptor 4, sequence (P32245 whole entry): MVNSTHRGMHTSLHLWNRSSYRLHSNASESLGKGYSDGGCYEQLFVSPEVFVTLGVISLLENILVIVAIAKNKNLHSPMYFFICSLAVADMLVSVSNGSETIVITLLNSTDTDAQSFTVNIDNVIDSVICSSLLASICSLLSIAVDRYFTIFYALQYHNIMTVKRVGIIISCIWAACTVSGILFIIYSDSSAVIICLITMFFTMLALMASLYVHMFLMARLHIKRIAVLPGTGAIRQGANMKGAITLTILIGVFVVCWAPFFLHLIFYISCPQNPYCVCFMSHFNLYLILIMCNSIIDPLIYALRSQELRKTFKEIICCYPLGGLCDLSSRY

CC(N)C12CC3CC(CC(C3)C1)C2 (stereo unspecified) [RIMANTADINE]
Not Active: IC50 [1] | Ki [1] | IC50 [2] | IC50 [3] | IC50 [4] | Ki [4] | IC50 [5] | IC50 [6] | IC50 [7]

CS(=O)(=O)c1ccc(C2=C(c3ccccc3)C(=O)OC2)cc1 [ROFECOXIB]
Not Active: IC50 [1] | Ki [1] | IC50 [2] | IC50 [3] | IC50 [4] | Ki [4] | IC50 [5] | IC50 [6] | IC50 [7]

C=CCc1ccc2c(c1)OCO2 [SAFROLE]
Not Active: IC50 [1] | Ki [1] | IC50 [2] | IC50 [3] | IC50 [4] | Ki [4] | IC50 [5] | IC50 [6] | IC50 [7]

CCC(C)(C)C(=O)O[C@H]1C[C@@H](C)C=C2C=C[C@H](C)[C@H](CC[C@@H]3C[C@@H](O)CC(=O)O3)[C@H]21 [SIMVASTATIN]
Not Active: IC50 [1] | Ki [1] | IC50 [2] | IC50 [3] | IC50 [4] | Ki [4] | IC50 [5] | IC50 [6] | IC50 [7]

O=[As][O-].[Na+] [SODIUM ARSENITE]
Not Active: IC50 [1] | Ki [1] | IC50 [2] | IC50 [3] | IC50 [4] | Ki [4] | IC50 [5] | IC50 [6] | IC50 [7]

C1CCN2C[C@@H]3C[C@@H](CN4CCCC[C@@H]34)[C@H]2C1 [SPARTEINE]
Not Active: IC50 [1] | Ki [1] | IC50 [2] | IC50 [3] | IC50 [4] | Ki [4] | IC50 [5] | IC50 [6] | IC50 [7]

C[C@]12CCC(=O)C[C@@H]1CC[C@@H]1[C@@H]2CC[C@]2(C)[C@@H](O)CC[C@@H]12 [STANOLONE]
Not Active: IC50 [1] | Ki [1] | IC50 [2] | IC50 [3] | IC50 [4] | Ki [4] | IC50 [5] | IC50 [6] | IC50 [7]

Cc1cn([C@H]2C=C[C@@H](CO)O2)c(=O)[nH]c1=O [STAVUDINE]
Not Active: IC50 [1] | Ki [1] | IC50 [2] | IC50 [3] | IC50 [4] | Ki [4] | IC50 [5] | IC50 [6] | IC50 [7]

CC1(C)[C@H](C(=O)O)N2C(=O)C[C@H]2S1(=O)=O [SULBACTAM]
Not Active: IC50 [1] | Ki [1] | IC50 [2] | IC50 [3] | IC50 [4] | Ki [4] | IC50 [5] | IC50 [6] | IC50 [7]
